Data as given in patent US9624243B2, “Heterocyclic compounds and methods of their use” (Novartis AG, priority 2012, dated 2017).
pIC50, pKi: −log10 of the molar value.

Columns and labels:
[1] = biological target: AT1 receptor (Homo sapiens (Human), UniProt P30556); assay: AT1 Receptor Binding; conditions: HEK293/AT1 receptor transient cell membranes, [125I]-Sar1-Ile8-Angiotensin II; top concentration tested 10 μM
Source text: The same media, solutions, cell procedures and compound preparation was used as for Biological Example 1 but using HEK293/AT1 Receptor Transient Cells.

[2] = biological target: AT2 receptor (Homo sapiens (Human), UniProt P50052); assay: AT2 Receptor Binding; conditions: HEK293 AT2 receptor transient cell membranes, [125I]-CGP42112A
Chain of AT2 receptor (P50052 whole entry, species assumed): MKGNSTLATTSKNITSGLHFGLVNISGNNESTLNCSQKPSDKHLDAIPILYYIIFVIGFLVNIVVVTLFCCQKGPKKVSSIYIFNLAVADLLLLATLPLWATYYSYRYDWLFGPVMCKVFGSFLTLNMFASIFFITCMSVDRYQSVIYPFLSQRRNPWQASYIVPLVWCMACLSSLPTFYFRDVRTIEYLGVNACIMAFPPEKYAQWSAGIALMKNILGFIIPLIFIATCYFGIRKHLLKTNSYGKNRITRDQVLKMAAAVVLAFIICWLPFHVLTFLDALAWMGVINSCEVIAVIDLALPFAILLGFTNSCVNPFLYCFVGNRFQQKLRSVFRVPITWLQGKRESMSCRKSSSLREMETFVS
Method: 1. Trypsin-EDTA (for Preparation of 100 mL)
• Dissolve trypsin in 2% EDTA and PBS completely; sterilize the solution by passing through a […] membrane filter; store at 4° C.
2. DMEM Medium (for Preparation of 1 L) • The powder was dissolved into 950 mL of distilled water with gentle stirring until the solution becomes clear. • Add. NaHCO3 1.176 g for DMEM medium. • Adjust pH of medium to 0.2˜0.3 below final working pH using 1 M NaOH or 1 M • HCl. Add slowly with stirring. • Dilute to 1 liter with ddH2O. • Sterilize the medium immediately by filtration. • Store at 4° C.
3. TE Buffer • 20 mM Tris-HCl, pH 7.4, • 5 mM EDTA
4. Binding Assay Buffer • 50 mM Hepes, pH 7.4 • 5 mM MgCl2 • 1 mM CaCl2 • 0.2% BSA
5. Wash Buffer • 50 mM Hepes, pH 7.4 Procedures for HEK293AT2 Receptor Transient Cell Transfection • Cells were plated into 150 mm dish at 50% density for transient transfection. Cells were ready for transfection after overnight incubation (the confluence reaches around 80%). • 75 μL Lipofectamine™2000 diluted in 6.25 mL OptiMEM I Reduced Serum Medium, was mixed gently, and incubated at room temperature for 5 minutes. 50 μg expression plasmid DNA diluted in 6.25 mL OptiMEM I Reduced Serum Medium without serum was mixed gently. • After the 5 minute incubation, the diluted DNA was combined with the diluted Lipofectamine™2000 (total volume is 12.5 mL). The mixture was mixed gently and incubated for 30 minutes at room temperature to allow the DNA-Lipofectamine™2000 complexes to form. • The 12.5 mL DNA-Lipofectamine™2000 complexes were added into the 150 mm dish and mixed gently by rocking the dish back and forth. • The cells were incubated at 37° C. with 5% CO2 for 48 hours. Cells were collected and stored frozen at −80° C. Procedures for HEK293AT2 Receptor Cell Membrane Preparation • Frozen HEK293AT2 receptor (transient transfected) cells were homogenized in ice cold TE buffer for 10s. • The homogenate was centrifuged at 25,000 g for 30 minutes. • The pellet was resuspended in ice cold tissue buffer. • Protein concentrations were determined using Bradford assay method with BSA as standard. • The membrane protein was frozen under −80° C. Compound Preparation
Solutions of all compounds were prepared bymicroplate liquid handling equipment such as Janus or Precision 2000. Compounds, dissolved in DMSO were stored in a Freezer. Compounds were prepared from 30 mM in 100% DMSO.
Step 1: Dose Plate Preparation (96 Well Plate)
• Add the 3 μL [30 mM] compound stock to column 1 on the plate. • Add 15 μL of 100% DMSO to column 1. • Add 10.81 μL of 100% DMSO to column 2-12. • Transfer 5 μL from column 1 into column 2 (half log dilution). • Transfer 5 μL from column 2 into column 3 (half log dilution). • Transfer 5 μL from column 3 into column 4 (half log dilution). • Transfer 5 μL from column 4 into column 5 (half log dilution). • Transfer 5 μL from column 5 into column 6 (half log dilution). • Transfer 5 μL from column 6 into column 7 (half log dilution). • Transfer 5 μL from column 7 into column 8 (half log dilution). • Transfer 5 μL from column 8 into column 9 (half log dilution). • Transfer 5 μL from column 9 into column 10 (half log dilution) • Transfer 5 μL from column 10 into column 11 (half log dilution) • Transfer 5 μL from column 11 into column 12 (half log dilution).
All the compounds were diluted using Precision 2000 microplate liquid handling equipment. The top concentration of compound was 5 mM with 100% DMSO.
Step 2: Working Plate Preparation (96 Well Plate)
• Compounds were diluted 50-fold with buffer. • 49 μL buffer was added to the well of 96 well plate. • 1 μL compound solution from dose plate was transferred to the corresponding well of working plate. • The top concentration of compound was 100 μM with 2% DMSO. Step 3: Assay Plate Preparation (96 Well Plate)
15 μL of compound solution was transferred from each well of working plate to the well of assay plate by Janus.

[3] = test system: NG108-15 neurite cells; assay: AT2 Receptor Neurite Outgrowth Assay; format: cell-based; conditions: NG108-15 cells, in the presence of angiotensin II 0.1 μM, compound 0.003-10 μM
Method: The general methodology of Wallinder (2008) and references cited therein was used to assess the effect of the compounds of the present invention on neurite outgrowth. The assay was adapted for high content screening.
EMA1087 is a known AT2 receptor agonist described as “compound 21” in Wan et al. 2004. PD-123,319 is a known, commercially available AT2 receptor antagonist. The results were analyzed by immunofluorescence quantitative analysis. Neurite outgrowth was quantified with neurite average length using Cellomics software. Results are expressed as the mean±SEM, each conducted in triplicate. Statistical significance, compared with Ang II control: *p<0.05, **p<0.01, and ***p<0.001. NS: no significant difference. ND: not determined. FIGS. 1 to 5 show neurite outgrowth was inhibited by the AT2 receptor antagonists, PD-126,055 and compounds 6, 15, 21 and 28.

Chain of AT1 receptor (P30556 whole entry, species assumed): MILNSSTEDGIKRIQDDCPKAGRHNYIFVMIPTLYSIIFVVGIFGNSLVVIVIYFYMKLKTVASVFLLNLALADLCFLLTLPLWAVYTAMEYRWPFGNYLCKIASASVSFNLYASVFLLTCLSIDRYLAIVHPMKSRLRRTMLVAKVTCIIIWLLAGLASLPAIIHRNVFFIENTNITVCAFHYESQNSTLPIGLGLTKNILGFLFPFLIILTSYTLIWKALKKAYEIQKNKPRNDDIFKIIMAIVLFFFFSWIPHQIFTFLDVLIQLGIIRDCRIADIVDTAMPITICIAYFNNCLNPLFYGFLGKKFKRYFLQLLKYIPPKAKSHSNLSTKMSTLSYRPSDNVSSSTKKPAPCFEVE

Row | Compound | pIC50 [1] | pKi [1] | pIC50 [2] | neurite outgrowth (neurite average length) [3]
1 | CN(CCCc1ccccc1)[C@H]1C[C@@H](C(=O)O)N(C(=O)C(c2ccccc2)c2ccccc2)C1 [Compound 21, (2S,4S)-1-(2,2-diphenylacetyl)-4-(methyl(3-phenylpropyl)amino)pyrrolidine-2-carboxylic acid] | < 5.00 | < 5.00 | 7.21 | inhibited
2 | O=C(O)[C@@H]1C[C@H](N2CCOC[C@@H]2Cc2ccccc2)CN1C(=O)C(c1ccccc1)c1ccccc1 [Compound 28, (2S,4S)-4-((S)-3-benzylmorpholino)-1-(2,2-diphenylacetyl)pyrrolidine-2-carboxylic acid] |  |  | 7.06 | inhibited
3 | O=C(O)[C@@H]1C[C@H](CSCc2ccccc2)CN1C(=O)C(c1ccccc1)c1ccccc1 [Compound 121, (2S,4S)-4-((benzylthio)methyl)-1-(2,2-diphenylacetyl)pyrrolidine-2-carboxylic acid] |  |  | 7.24 | 
4 | O=C(O)[C@@H]1C[C@H](CSc2ccccc2)CN1C(=O)C(c1ccccc1)c1ccccc1 [Compound 122, (2S,4S)-1-(2,2-diphenylacetyl)-4-((phenylthio)methyl)pyrrolidine-2-carboxylic acid] |  |  | 6.85 | 
5 | O=C(O)[C@@H]1C[C@H](SCCCc2ccccc2)CN1C(=O)C(c1ccccc1)c1ccccc1 [Compound 124, (2S,4S)-1-(2,2-diphenylacetyl)-4-((3-phenylpropyl)thio)-pyrrolidine-2-carboxylic acid] |  |  | 6.44 | 
6 | O=C(O)[C@@H]1C[C@H](S(=O)(=O)CCCc2ccccc2)CN1C(=O)C(c1ccccc1)c1ccccc1 [Compound 125, (2S,4S)-1-(2,2-diphenylacetyl)-4-((3-phenylpropyl)-sulfonyl)pyrrolidine-2-carboxylic acid] |  |  | 5.91 | 
7 | CN(CCOc1ccc(F)cc1)[C@H]1C[C@@H](C(=O)O)N(C(=O)C(c2ccccc2)c2ccccc2)C1 [Compound 126] |  |  | 7.69 | 
8 | O=C(O)[C@@H]1C[C@H](SCCc2ccccc2)CN1C(=O)C(c1ccccc1)c1ccccc1 [Compound 131, (2S,4S)-1-(2,2-diphenylacetyl)-4-(phenethylthio)pyrrolidine-2-carboxylic acid] |  |  | 6.19 | 
9 | O=C(O)[C@@H]1C[C@H](SCCCc2ccc(F)cc2)CN1C(=O)C(c1ccccc1)c1ccccc1 [Compound 133, (2S,4S)-1-(2,2-diphenylacetyl)-4((3-(4-fluorophenyl)propyl)thio)pyrrolidine-2-carboxylic acid] |  |  | 5.76 | 
10 | O=C(O)[C@@H]1C[C@H](S(=O)(=O)CCCc2ccc(F)cc2)CN1C(=O)C(c1ccccc1)c1ccccc1 [Compound 134, (2S,4S)-1-(2,2-diphenylacetyl)-4((3-(4-fluorophenyl)propyl)sulfonyl)pyrrolidine-2-carboxylic acid] |  |  | 6.02 | 
11 | CS(=O)(=O)NC(=O)[C@@H]1C[C@H](OCCCc2ccccc2)CN1C(=O)C(c1ccccc1)c1ccccc1 [Compound 135, (2S,4S)-1-(2,2-diphenylacetyl)-N-(methylsulfonyl)-4-(phenylpropoxy)pyrrolidine-2-carboxamide] |  |  | 6.62 | 
12 | O=C(O)[C@@H]1C=C(c2sccc2-c2ccccc2)CN1C(=O)C(c1ccccc1)c1ccccc1 [Compound 139, (S)-1-(2,2-diphenylacetyl)-4-(3-phenylthiophen-2-yl)-2,5-dihydro-1H-pyrrole-2-carboxylic acid] |  |  | 5.60 | 
13 | O=C(O)[C@@H]1C=C(C#CCCc2ccccc2)CN1C(=O)C(c1ccccc1)c1ccccc1 [Compound 140, (S)-1-(2,2-diphenylacetyl)-4-(4-phenylbut-1-yn-1-yl)-2,5-dihydro-1H-pyrrole-2-carboxylic acid] |  |  | 6.17 | 
14 | COc1ccc2c(c1OCc1ccccc1)C[C@@H](C(=O)O)N(C(=O)C(c1ccccc1)c1ccccc1)C2 [PD-126,055, reference compound] | < 5.00 | < 5.00 |  | inhibited
